Test results reported in PubChem BioAssay (NCI).
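Following 48 hours of exposure in 96-well plates, responses at five concentrations were used to interpolate endpoints linearly. Definition used: TGI = concentration required for complete inhibition of growth.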

What was measured:
Assay in all cases: NCI-60 cell line screen, 48 h
[1] = system: SNB-19 CNS
[2] = system: OVCAR-3 ovarian
[3] = system: DMS 273 small cell lung
[4] = system: NCI-H460 lung
[5] = system: ACHN renal
[6] = system: UACC-257 melanoma
[7] = system: EKVX NSCLC
[8] = system: HCT-15 colon
[9] = system: RXF 393 renal
[10] = system: UACC-62 melanoma
[11] = system: SK-MEL-28 melanoma
[12] = system: U251 CNS
[13] = system: NCI-H226 lung
[14] = system: SK-OV-3 ovarian
[15] = system: KM12 colon
[16] = system: SR leukemia
[17] = system: MDA-MB-435
[18] = system: PC-3 prostate
[19] = system: DU-145 prostate
[20] = system: BT-549 breast

Structure (SMILES)	TGI [1] [µM]	TGI [2] [µM]	TGI [3] [µM]	TGI [4] [µM]	TGI [5] [µM]	TGI [6] [µM]	TGI [7] [µM]	TGI [8] [µM]	TGI [9] [µM]	TGI [10] [µM]	TGI [11] [µM]	TGI [12] [µM]	TGI [13] [µM]	TGI [14] [µM]	TGI [15] [µM]	TGI [16] [µM]	TGI [17] [µM]	TGI [18] [µM]	TGI [19] [µM]	TGI [20] [µM]
CSc1nc(NC2OCC(OC(C)=O)C(OC(C)=O)C2OC(C)=O)c2c(n1)OCC2=O (stereo unspecified)	> 100	> 100	> 100	> 100	> 100	> 100	> 100	> 100	> 100	> 100	> 100	> 100	> 100	> 100	> 100	–	–	–	–	–
CCc1ccc(Cc2ccc(CC)c(NC(=O)C(=O)C3NC(=S)NC3=O)c2CC)c(CC)c1NC(=O)C(=O)C1NC(=S)NC1=O (stereo unspecified)	> 100	> 100	> 100	> 100	> 100	> 100	> 100	> 100	> 100	> 100	> 100	> 100	–	> 100	> 100	–	–	–	–	–
O=C(O[C@H]1[C@@H]2C=CO[C@@H](OC3OC(CO)C(O)C(O)C3O)[C@@H]2[C@@]2(CO)O[C@@H]12)c1ccc(O)c(O)c1 (stereo partly specified)	> 100	> 100	> 100	> 100	> 100	> 100	> 100	–	> 100	> 100	> 100	> 100	–	> 100	> 100	–	–	–	–	–
Cc1nc(-n2nc(-c3ccccc3)cc2-c2ccccc2)sc1C(=O)/C=C/c1ccc([N+](=O)[O-])cc1	> 100	45.3	> 100	> 69.3	> 52	> 71.7	> 100	> 61.9	49.3	> 53.9	> 100	> 47.6	> 100	> 100	38.1	24.2	43.5	> 100	> 100	39.5
C=CCCCN1CCCCC1=S	> 100	> 100	> 100	> 100	> 100	> 100	> 100	> 100	> 100	> 100	> 100	> 100	> 100	> 100	> 100	> 100	–	–	–	–
CC(C)(C)OC(=O)N1CC(C)(C)N2C(=O)C3(CCCO3)C12 (stereo unspecified)	> 100	> 100	> 100	> 100	> 100	> 100	> 100	> 100	> 100	> 100	> 100	> 100	> 100	> 100	> 100	–	–	–	–	–
CC1SC2=NC3=C(c4ccccc4C3=O)C(c3ccccc3Cl)N2C1=O (stereo unspecified)	> 100	> 100	> 100	> 100	> 100	> 100	> 100	> 100	–	> 100	> 100	> 100	> 100	> 100	> 100	–	–	–	–	–
Nc1ccn(CCOC(c2ccccc2)P(=O)(O)O)c(=O)n1 (stereo unspecified)	> 100	> 100	> 100	> 100	> 100	> 100	> 100	> 100	> 100	> 100	> 100	> 100	> 100	> 100	> 100	> 100	–	–	–	–
C#CC(C)(C)OCCCCOc1cc(O)c2c(=O)c3ccccc3n(C)c2c1	> 100	> 100	> 100	> 100	> 100	> 100	> 100	> 100	> 100	> 100	> 100	> 100	> 100	> 100	> 100	> 100	–	–	–	–
Cc1cc2c(=O)c(C)n[nH]c2c(C#N)c1C	> 100	> 100	> 100	> 100	> 100	> 100	> 100	> 100	> 100	> 100	> 100	> 100	> 100	> 100	–	> 100	–	–	–	–
O=c1[nH]nc(CNc2ccc(Cl)cc2Cl)c2ccccc12	60.7	40.3	72.9	84.5	46.2	92.7	85.7	89.1	34.9	> 100	52.4	37.9	81.2	38.1	> 100	> 100	–	–	–	–
CN1N=C2c3ccccc3OC(c3ccccc3)[C@H]2C1c1ccccc1 (stereo partly specified)	> 100	> 100	> 100	> 100	> 100	> 100	> 100	> 100	88.5	> 100	> 100	> 100	> 100	> 100	> 100	> 100	–	–	–	–
CC(C)c1cccc(C(C)C)c1NC(=O)C(=O)C1CCC2=C(Sc3ccccc3N2)C1=O (stereo unspecified)	> 100	> 100	> 100	> 100	> 100	> 100	> 100	> 100	> 100	> 100	> 100	> 100	> 100	> 100	> 100	> 100	–	–	–	–
COc1cccc(C=O)c1[O-].COc1cccc(C=O)c1[O-].[Zn+2]	> 100	92.6	> 100	> 100	> 100	99.2	> 100	> 100	> 100	> 100	> 100	> 100	> 100	> 100	> 100	> 100	–	–	–	–
CO/N=C(/C(=O)Nc1c[n+](CC(=O)[O-])cs1)c1csc(N)n1	> 100	> 100	> 100	> 100	> 100	> 100	> 100	> 100	–	> 100	–	> 100	> 100	> 100	> 100	–	–	–	–	–
O=c1c(C(c2ccc([N+](=O)[O-])cc2)c2c(O)c3ccccc3n(-c3ccccc3)c2=O)c(O)c2ccccc2n1-c1ccccc1	> 100	70.5	> 100	–	72	–	59.7	30.7	40.1	14.8	66.5	75.2	74.8	> 100	82.5	62.7	–	–	–	–
CC(C)(CCl)NC(=O)c1cccc(C(=O)NC(C)(C)CCl)n1	> 100	> 100	> 100	> 100	> 100	–	> 100	> 100	> 100	–	> 100	> 100	> 100	> 100	> 100	> 100	–	–	–	–
CC12C3CC4C5CC(C(C53)[C@@H]1NCc1ccccc1)C42 (stereo partly specified)	> 100	> 100	> 100	> 100	> 100	> 100	> 100	> 100	> 100	> 100	> 100	> 100	> 100	> 100	> 100	> 100	–	–	–	–
Cc1cccc(N=Cc2ccc(N(CCC#N)S(=O)(=O)c3ccccc3)cc2C)c1	> 100	> 100	> 100	–	> 100	> 100	> 100	> 100	–	> 100	> 100	> 100	> 100	> 100	> 100	–	–	–	–	–
O=C1NC(=S)NC(=O)C1=CC1CC1	> 100	–	> 100	> 100	> 100	> 100	> 100	> 100	> 100	> 100	> 100	> 100	> 100	> 100	> 100	> 100	–	–	–	–
CCCCCCCC(=O)OC[C@H](C[As](=O)(O)O)OC(=O)CCCCCCC	27.3	–	24	–	23.1	27.2	80.7	23.5	16	21.3	26.5	19.1	17.6	29	–	22.8	–	–	–	–
